ChEMBL document CHEMBL1201862, “PubChem BioAssay data set” (2004)
Activity calls are given as the source filed them.

Legend:
[1] = biological target: T1, Neuropeptide Y receptor type 1 (Homo sapiens, UniProt P25929); type: functional;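 note: HEK293 cells with a CNG channel challenged with NPY then isoproterenol; potency as antagonist that reverses NPY suppression of cAMP signal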
T1 sequence (P25929 whole entry): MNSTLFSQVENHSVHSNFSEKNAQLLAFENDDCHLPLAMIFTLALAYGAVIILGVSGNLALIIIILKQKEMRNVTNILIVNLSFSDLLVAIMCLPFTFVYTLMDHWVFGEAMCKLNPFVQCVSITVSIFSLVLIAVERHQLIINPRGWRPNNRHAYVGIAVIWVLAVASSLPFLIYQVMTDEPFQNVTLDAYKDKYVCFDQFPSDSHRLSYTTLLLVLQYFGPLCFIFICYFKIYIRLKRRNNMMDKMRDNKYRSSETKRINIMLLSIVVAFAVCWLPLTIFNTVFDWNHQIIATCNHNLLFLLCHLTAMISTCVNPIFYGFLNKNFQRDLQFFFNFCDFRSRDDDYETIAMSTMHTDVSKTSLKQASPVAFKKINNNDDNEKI

[2] = biological target: T2, Neuropeptide Y receptor type 2 (Homo sapiens, UniProt P49146); type: functional, cell-based;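 note: HEK293 cells expressing the receptor and a CNG channel; stimulus was NPY near EC95 followed by isoproterenol to raise cAMP; antagonist potency measured as restoring cAMP signal that NPY suppresses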
T2 sequence (P49146 whole entry): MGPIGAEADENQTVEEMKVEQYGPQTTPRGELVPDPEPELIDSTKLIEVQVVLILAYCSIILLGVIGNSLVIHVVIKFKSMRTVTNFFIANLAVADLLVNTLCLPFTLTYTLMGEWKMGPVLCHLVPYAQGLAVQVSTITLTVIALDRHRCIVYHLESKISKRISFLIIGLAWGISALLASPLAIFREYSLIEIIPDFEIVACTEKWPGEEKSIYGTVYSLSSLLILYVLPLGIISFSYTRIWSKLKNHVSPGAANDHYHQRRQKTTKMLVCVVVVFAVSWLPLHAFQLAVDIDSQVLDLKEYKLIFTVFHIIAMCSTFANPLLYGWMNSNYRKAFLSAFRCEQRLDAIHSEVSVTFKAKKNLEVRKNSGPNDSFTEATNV

[3] = biological target: Sphingosine 1-phosphate receptor 2 (Homo sapiens, UniProt O95136); assay: Dose Response Cell Based Assay for Agonists of the S1P2 Receptor of Purchased Analogues. [Related pubchem assays: 729, 843, 854, 736 ]; type: functional
[4] = test system: Streptococcus sp. 'group A'; assay: Streptococcus pyogenes SK(-)GAS viability under kanamycin – luminescence, BacTiterGlo, confirmation, counter-screen for streptokinase expression inhibitor project, dose response (AID 1900); type: functional, organism-based
[5] = CCR5-tropic HIV-1 fusion blockers – cell-based, CCR5-tropic Env, dose response (AID 2279); type: functional
[6] = NIH-3T3 fibroblast cytotoxicity, dose response, cytotoxicity control, cell-based, fluorescence, Alamar Blue, secondary assay (AID 2327); type: functional;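 note: NIH-3T3 mouse fibroblasts cultured with fluconazole at 8 µg/mL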
Streptococcus = assay: GAS UMAA2166 growth inhibition – luminescence, BacTiterGlo, counter-screen for streptokinase expression inhibitor project, dose response (AID 1915); type: functional, organism-based;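 note: potency for reduction of bacterial viability or growth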
Aminopeptidase N = biological target: T3, Aminopeptidase N (Plasmodium falciparum FcB1/Columbia, UniProt O96935); assay: malaria alanyl aminopeptidase activity blockers – biochemical, fluorogenic H-Leu-NHMec substrate, 1536-well (AID 1445); design: species or system Plasmodium falciparum 3D7, 3D7
T3 sequence (O96935 whole entry): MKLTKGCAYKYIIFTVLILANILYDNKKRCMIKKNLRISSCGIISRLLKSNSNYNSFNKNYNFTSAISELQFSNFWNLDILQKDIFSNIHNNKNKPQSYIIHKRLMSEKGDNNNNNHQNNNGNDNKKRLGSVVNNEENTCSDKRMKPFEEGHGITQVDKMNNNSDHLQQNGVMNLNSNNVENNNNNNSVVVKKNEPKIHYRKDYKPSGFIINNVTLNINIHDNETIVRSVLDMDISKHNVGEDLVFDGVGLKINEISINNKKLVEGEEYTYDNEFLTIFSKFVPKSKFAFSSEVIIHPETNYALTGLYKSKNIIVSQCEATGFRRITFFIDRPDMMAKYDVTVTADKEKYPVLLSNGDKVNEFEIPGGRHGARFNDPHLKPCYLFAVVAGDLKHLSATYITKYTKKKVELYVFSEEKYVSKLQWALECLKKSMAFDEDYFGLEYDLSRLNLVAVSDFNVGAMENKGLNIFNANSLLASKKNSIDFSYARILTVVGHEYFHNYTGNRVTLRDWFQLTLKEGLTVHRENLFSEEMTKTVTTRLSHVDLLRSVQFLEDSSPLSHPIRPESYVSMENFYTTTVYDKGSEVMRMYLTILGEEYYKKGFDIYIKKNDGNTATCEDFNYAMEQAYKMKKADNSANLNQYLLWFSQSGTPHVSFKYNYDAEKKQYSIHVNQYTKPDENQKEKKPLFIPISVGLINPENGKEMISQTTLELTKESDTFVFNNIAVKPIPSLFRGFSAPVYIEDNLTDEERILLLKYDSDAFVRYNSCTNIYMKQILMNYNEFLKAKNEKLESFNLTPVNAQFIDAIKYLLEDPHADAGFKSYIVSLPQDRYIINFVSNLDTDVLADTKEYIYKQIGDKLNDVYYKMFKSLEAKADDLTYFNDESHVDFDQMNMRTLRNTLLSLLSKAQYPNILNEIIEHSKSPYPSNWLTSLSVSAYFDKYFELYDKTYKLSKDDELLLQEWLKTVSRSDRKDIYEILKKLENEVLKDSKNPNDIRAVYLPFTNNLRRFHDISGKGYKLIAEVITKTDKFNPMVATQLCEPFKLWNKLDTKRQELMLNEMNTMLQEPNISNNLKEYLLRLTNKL

Genome polyprotein = Genome polyprotein (dengue virus type 2, UniProt P29990); assay: flavivirus cap methylation enzyme inhibition – biochemical, confirmation dose response, primary screen (AID 588689); type: functional
Streptokinase A = biological target: T4, Streptokinase A (Streptococcus pyogenes serotype M1, UniProt P10520); assay: viability-normalized secreted streptokinase activity reduction – plasminogen activation absorbance, OD405, dose response (AID 1914); type: functional, Streptococcus pyogenes M1 GAS;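 note: secreted streptokinase activity via plasminogen activation per viability signal from cell pellet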
T4 sequence (P10520 whole entry): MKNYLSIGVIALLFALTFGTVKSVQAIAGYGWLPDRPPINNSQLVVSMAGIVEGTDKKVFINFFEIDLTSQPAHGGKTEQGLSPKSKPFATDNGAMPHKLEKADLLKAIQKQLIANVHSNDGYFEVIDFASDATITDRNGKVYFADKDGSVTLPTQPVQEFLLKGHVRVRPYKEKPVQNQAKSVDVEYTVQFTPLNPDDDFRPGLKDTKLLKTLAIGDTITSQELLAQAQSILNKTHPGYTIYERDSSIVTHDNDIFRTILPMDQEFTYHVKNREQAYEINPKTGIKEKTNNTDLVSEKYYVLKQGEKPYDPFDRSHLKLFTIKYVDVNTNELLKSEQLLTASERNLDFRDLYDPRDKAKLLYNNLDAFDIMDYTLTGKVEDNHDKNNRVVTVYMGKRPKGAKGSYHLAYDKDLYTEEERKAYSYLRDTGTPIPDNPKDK

[7] = fluconazole-exposed Candida albicans growth modulators – fluorescence, retest, confirmation (AID 2467); type: functional, cell-based
Bcl-2-like protein 10 = biological target: T5, Bcl-2-like protein 10 (Homo sapiens, UniProt Q9HD36); assay: Concentration-response of Bcl-B inhibitors by biochemical FP with TR3 (AID 1243); type: functional
T5 sequence (Q9HD36 whole entry): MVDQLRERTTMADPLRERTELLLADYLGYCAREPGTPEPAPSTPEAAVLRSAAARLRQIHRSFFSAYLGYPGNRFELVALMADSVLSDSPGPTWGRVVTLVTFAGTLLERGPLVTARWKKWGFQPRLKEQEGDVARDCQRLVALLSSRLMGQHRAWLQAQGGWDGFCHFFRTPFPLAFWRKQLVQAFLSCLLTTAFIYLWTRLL

[8] = Luminescence Cell-Based Dose Confirmation to Identify Activators of 5'UTR Stem-Loop Driven Alpha-Synuclein mRNA Translation in H4 Neuroglioblastoma Cells. [Related pubchem assays: 1829 (Project Summary), 1814 (Primary HTS)]; type: functional
[9] = Luminescence Cell-Based Dose Response to Identify Activators of Luciferase Translation or Activity in H4-C Neuroglioblastoma Cells. [Related pubchem assays: 1829 (Project Summary), 1814 (Primary HTS)]; type: functional
[10] = Luminescence Cell-Based Dose Response to Identify Activators of 5'UTR Stem-Loop Driven Prion Protein mRNA Translation in H4-C Neuroglioblastoma Cells. [Related pubchem assays: 1829 (Project Summary), 1814 (Primary HTS)]; type: functional
[11] = Luminescence Cell-Based Dose Confirmation HTS to Identify Activators of 5'UTR Stem-Loop Driven Alpha-Synuclein mRNA Translation in H4 Neuroglioblastoma Cells. [Related pubchem assays: 1829 (Project Summary), 1814 (Primary HTS)]; type: functional
H4 = assay: Luminescence Cell-Based Dose Response HTS to Identify Activators of 5'UTR Stem-Loop Driven Prion Protein mRNA Translation in H4 Neuroglioblastoma Cells. [Related pubchem assays: 1829 (Project Summary), 1814 (Primary HTS)]; type: functional; details: Homo sapiens
[12] = biological target: DNA dC->dU-editing enzyme APOBEC-3G (Homo sapiens, UniProt Q9HC16); type: functional;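 note: Dose-response counterscreen measuring inhibition of APOBEC3G DNA deaminase activity, run while confirming APOBEC3A inhibitors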
[13] = biological target: DNA dC->dU-editing enzyme APOBEC-3A (Homo sapiens, UniProt P31941); assay: Dose Response confirmation of small molecule APOBEC3A DNA Deaminase Inhibitors via a fluorescence-based single-stranded DNA deaminase assay. [Related pubchem assays (depositor defined):AID493011, AID493024]; type: functional
[14] = mitochondrial function rescue without frataxin homolog – Friedreich's ataxia, plus single-dose screen, dose response (AID 1465); type: functional;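 note: yeast depleted of Yfh1p frataxin homolog grown on glycerol needing respiration; WST-1 tetrazolium dye reduction as measure of cellular dehydrogenase metabolic activity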
[15] = Luminescence Cell-Based Dose Confirmation HTS to Identify Inhibitors of Polyadenylation.; type: functional
[16] = biological target: Potassium voltage-gated channel subfamily KQT member 2 (Rattus norvegicus, UniProt O88943, W236L); assay: potentiation of rat KCNQ2 current – cell-based, automated electrophysiology, mechanism study for KCNQ2 potentiator project, dose response (AID 2603); type: functional
Sequence of Potassium voltage-gated channel subfamily KQT member 2 (O88943 whole entry W236L): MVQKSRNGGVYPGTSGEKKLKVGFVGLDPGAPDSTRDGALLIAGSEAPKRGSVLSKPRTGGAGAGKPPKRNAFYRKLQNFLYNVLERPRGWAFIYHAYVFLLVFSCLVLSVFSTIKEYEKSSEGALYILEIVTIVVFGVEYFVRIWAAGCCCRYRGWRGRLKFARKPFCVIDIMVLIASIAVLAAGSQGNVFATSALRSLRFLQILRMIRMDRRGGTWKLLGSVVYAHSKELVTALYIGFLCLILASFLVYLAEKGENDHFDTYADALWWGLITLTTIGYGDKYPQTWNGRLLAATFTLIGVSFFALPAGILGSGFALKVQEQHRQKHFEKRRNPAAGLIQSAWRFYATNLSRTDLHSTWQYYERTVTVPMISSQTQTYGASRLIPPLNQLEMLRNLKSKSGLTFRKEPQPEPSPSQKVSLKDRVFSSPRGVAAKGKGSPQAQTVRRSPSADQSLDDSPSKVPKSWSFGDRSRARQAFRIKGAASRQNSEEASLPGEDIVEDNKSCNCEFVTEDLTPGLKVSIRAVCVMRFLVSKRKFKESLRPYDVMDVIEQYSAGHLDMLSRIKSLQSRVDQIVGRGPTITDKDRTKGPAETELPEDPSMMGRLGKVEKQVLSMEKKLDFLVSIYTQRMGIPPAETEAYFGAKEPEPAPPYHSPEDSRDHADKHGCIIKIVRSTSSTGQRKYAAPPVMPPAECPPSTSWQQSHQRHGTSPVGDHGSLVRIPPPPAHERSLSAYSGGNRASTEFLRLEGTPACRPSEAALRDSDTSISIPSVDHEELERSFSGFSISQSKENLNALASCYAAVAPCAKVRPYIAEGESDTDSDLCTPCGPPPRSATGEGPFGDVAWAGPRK

Sequence of DNA dC->dU-editing enzyme APOBEC-3G (Q9HC16 whole entry): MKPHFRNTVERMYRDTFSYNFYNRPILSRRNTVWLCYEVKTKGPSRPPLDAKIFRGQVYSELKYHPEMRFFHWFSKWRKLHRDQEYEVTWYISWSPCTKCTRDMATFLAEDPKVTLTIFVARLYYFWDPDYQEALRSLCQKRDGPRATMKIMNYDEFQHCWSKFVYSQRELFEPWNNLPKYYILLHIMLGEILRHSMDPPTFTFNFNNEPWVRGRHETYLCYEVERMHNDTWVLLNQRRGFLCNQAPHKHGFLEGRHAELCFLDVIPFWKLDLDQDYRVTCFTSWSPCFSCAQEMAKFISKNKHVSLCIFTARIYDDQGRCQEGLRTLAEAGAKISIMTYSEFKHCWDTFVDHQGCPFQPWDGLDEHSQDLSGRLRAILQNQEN
Sequence of Sphingosine 1-phosphate receptor 2 (O95136 whole entry): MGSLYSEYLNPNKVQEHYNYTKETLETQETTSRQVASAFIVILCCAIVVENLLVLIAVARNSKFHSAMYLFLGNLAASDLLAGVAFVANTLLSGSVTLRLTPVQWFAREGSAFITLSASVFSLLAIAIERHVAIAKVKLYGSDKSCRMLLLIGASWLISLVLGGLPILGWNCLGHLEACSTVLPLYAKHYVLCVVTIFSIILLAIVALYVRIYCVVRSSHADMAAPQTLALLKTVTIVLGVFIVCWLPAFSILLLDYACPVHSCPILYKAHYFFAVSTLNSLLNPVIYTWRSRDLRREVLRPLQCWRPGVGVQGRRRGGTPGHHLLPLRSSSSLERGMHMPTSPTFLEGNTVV
Sequence of Genome polyprotein (P29990 2492-3391 limits assumed): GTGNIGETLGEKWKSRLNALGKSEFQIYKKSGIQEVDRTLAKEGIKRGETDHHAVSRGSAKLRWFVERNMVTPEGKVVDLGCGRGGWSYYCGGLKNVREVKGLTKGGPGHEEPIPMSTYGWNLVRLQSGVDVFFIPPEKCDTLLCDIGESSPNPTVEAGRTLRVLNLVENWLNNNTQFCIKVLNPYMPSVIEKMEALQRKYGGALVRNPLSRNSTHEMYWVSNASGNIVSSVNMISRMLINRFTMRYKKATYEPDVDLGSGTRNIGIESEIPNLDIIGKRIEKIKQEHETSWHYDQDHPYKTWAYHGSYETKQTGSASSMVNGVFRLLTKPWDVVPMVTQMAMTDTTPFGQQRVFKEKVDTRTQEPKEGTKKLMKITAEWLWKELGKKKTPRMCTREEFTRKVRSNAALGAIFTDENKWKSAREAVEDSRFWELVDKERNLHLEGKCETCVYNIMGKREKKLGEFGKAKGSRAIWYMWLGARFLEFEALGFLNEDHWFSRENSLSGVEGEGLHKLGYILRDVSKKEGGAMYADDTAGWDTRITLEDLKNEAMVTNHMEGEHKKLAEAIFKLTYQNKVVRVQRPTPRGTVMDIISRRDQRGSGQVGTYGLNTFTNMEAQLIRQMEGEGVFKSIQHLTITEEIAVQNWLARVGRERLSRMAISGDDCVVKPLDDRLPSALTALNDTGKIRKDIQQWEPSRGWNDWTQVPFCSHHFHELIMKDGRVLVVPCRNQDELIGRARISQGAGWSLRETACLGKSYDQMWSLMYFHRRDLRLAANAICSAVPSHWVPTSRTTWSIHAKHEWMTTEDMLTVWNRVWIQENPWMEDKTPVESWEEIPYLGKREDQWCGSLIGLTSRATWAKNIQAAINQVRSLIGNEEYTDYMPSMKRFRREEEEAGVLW
Sequence of DNA dC->dU-editing enzyme APOBEC-3A (P31941 whole entry): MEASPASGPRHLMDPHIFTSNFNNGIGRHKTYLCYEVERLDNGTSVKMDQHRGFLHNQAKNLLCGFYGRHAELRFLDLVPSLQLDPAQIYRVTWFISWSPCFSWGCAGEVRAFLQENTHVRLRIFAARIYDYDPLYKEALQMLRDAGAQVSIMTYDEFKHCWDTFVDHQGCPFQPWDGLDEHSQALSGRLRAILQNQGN

In the case of Cc1ccc(N=C(S)N=C(N)Nc2nc(C)c3cc(C)ccc3n2)c(C)c1, the IC50 [1] is reported as > 35 µM (not active) and the IC50 [2] is reported as 22.9 µM (not active).

For Cc1cc(C(=O)CN(C)CC(=O)N2CCOCC2)c(C)n1Cc1ccccc1, the EC50 [3] was > 30 µM (not active).

In the case of CC1(C)CC(=O)C2=C(C1)c1c(ccc3ccccc13)NC2c1cc([N+](=O)[O-])cc([N+](=O)[O-])c1O (stereo not given), the EC50 [4] is reported as 4.43 µM (active), the IC50 [5] is reported as 29.9 µM (active) and the EC50 [6] is reported as 106 µM (active). For the same compound, the EC50 (Streptococcus) was > 150 µM (not active), the IC50 (Aminopeptidase N) was 29.4 µM (active) and the IC50 (Genome polyprotein) was 25.3 µM (active). For the same compound, the EC50 (Streptokinase A) was > 150 µM (not active) and the EC50 [7] was 0.622 µM (active).

In the case of CC(=O)c1cc(C#N)c(SCC(=O)c2ccc(O)c(O)c2)nc1C, the EC50 (Bcl-2-like protein 10) is reported as 11 µM (active).

With Cc1ccc(Nc2nc3ccccc3[nH]2)nc1 the EC50 [4] was 5.49 µM (active), the EC50 [8] was 0.601 µM (active) and the EC50 [9] was 0.368 µM (active). The EC50 [10] was 0.279 µM (active), the EC50 (Streptococcus) was > 150 µM (not active) and the EC50 [11] was < 0.1 µM (active). For the same compound, the EC50 (H4) was 43.1 µM (active) and the EC50 (Streptokinase A) was > 150 µM (not active).

In the case of C[n+]1cc(C(=O)N2CCCCC2)ccc1/C=C/c1c[nH]c2ccccc12, the IC50 [12] is reported as 2.7 µM (active), the IC50 [13] is reported as 2.44 µM (active) and the EC50 [14] is reported as > 100 µM (active).

In the case of CC(C)CC1Nc2ncnc(N3CCN(c4ccccc4)CC3)c2N(Cc2ccccc2)C1=O (stereo not given), the EC50 [15] is reported as > 120 µM (not active).

For O=C(Nc1ccc(Oc2ccc3ccccc3c2)cc1)c1ccco1, the EC50 [16] was 12 µM (active).
